Laboratory results as given in ChEMBL document CHEMBL3991601, “The target landscape of clinical kinase drugs” (Science, 2017).
Counter-ions that a name gives are not always drawn. The source made the active and inactive calls.

What was measured:
[1] = target: T1, Peroxisomal acyl-coenzyme A oxidase 3 (Homo sapiens, UniProt O15254)
T1 sequence (O15254 whole entry): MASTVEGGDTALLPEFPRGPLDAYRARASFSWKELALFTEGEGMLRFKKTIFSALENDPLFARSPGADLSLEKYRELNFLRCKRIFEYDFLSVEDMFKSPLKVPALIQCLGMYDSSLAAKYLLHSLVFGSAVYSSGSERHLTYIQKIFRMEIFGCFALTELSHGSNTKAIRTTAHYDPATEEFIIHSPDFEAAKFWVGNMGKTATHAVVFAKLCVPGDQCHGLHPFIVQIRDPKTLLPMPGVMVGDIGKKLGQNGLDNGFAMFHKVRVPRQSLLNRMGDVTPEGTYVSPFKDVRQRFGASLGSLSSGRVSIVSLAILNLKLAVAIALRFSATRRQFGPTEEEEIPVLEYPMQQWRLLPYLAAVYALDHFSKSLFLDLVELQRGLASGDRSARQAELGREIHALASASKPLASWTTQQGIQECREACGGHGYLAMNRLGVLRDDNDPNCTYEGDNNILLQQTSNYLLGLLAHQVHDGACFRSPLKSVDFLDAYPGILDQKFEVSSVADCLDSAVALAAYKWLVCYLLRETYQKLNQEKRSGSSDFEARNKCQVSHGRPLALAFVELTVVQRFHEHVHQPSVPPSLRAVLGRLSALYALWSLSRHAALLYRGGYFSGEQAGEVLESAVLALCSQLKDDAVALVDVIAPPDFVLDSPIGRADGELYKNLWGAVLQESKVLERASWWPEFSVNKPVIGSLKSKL

[2] = target: T2, Mitogen-activated protein kinase kinase kinase 3 (Homo sapiens, UniProt Q99759)
T2 sequence (Q99759 whole entry): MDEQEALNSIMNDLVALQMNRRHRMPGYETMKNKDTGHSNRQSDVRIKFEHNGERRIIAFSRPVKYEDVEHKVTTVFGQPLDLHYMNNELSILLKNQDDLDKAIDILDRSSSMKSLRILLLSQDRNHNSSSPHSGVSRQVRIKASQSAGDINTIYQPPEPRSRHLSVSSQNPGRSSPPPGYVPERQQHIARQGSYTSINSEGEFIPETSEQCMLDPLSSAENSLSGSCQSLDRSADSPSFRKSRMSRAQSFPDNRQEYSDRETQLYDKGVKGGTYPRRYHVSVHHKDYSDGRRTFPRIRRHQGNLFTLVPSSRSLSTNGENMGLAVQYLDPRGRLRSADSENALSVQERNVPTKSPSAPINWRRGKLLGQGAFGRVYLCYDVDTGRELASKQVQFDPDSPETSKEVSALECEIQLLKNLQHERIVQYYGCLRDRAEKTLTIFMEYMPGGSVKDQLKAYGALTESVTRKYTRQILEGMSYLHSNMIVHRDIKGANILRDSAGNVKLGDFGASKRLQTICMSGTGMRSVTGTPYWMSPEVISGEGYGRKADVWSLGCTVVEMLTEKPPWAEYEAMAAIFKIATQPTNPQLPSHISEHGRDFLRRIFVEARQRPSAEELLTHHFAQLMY

Insulin receptor = Insulin receptor (Homo sapiens, UniProt P06213)
Sequence of Insulin receptor (P06213 28-758 limits assumed): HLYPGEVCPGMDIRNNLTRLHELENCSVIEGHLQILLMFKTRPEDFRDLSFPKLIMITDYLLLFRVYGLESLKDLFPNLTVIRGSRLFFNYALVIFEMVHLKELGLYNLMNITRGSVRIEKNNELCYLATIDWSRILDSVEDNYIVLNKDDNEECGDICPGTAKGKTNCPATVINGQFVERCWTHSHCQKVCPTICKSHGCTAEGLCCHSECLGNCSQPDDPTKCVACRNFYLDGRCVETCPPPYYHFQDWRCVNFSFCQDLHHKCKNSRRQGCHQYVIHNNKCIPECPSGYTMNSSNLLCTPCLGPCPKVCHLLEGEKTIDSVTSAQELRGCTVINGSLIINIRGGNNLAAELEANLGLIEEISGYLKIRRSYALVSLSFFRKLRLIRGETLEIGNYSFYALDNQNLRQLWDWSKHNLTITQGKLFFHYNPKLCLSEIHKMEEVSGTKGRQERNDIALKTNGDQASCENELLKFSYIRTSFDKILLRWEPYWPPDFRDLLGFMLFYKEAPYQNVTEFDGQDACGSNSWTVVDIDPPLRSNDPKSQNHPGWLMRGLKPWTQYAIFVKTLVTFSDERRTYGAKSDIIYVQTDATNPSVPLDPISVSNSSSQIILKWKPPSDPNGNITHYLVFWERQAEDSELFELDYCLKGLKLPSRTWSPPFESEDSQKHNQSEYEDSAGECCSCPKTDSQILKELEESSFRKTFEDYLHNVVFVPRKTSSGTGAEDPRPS
Sequence of Insulin receptor (P06213 763-1382 limits assumed): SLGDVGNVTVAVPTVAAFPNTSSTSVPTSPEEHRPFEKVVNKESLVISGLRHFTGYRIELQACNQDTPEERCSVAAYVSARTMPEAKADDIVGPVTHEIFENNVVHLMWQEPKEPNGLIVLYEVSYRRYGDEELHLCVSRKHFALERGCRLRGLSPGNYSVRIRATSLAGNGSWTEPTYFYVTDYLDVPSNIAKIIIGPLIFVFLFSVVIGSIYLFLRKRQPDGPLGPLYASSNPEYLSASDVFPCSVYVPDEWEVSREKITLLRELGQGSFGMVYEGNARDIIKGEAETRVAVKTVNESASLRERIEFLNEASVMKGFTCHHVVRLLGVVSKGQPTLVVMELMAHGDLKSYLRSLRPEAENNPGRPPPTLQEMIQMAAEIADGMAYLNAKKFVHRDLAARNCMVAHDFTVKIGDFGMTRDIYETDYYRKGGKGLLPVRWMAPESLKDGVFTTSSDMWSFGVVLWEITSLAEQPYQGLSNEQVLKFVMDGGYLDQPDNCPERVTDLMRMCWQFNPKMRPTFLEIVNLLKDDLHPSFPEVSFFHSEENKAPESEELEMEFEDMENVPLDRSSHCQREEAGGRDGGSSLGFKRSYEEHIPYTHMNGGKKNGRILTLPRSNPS

[3] = target: Rho-associated protein kinase 1 (Homo sapiens, UniProt Q13464)
Sequence of Rho-associated protein kinase 1 (Q13464 whole entry): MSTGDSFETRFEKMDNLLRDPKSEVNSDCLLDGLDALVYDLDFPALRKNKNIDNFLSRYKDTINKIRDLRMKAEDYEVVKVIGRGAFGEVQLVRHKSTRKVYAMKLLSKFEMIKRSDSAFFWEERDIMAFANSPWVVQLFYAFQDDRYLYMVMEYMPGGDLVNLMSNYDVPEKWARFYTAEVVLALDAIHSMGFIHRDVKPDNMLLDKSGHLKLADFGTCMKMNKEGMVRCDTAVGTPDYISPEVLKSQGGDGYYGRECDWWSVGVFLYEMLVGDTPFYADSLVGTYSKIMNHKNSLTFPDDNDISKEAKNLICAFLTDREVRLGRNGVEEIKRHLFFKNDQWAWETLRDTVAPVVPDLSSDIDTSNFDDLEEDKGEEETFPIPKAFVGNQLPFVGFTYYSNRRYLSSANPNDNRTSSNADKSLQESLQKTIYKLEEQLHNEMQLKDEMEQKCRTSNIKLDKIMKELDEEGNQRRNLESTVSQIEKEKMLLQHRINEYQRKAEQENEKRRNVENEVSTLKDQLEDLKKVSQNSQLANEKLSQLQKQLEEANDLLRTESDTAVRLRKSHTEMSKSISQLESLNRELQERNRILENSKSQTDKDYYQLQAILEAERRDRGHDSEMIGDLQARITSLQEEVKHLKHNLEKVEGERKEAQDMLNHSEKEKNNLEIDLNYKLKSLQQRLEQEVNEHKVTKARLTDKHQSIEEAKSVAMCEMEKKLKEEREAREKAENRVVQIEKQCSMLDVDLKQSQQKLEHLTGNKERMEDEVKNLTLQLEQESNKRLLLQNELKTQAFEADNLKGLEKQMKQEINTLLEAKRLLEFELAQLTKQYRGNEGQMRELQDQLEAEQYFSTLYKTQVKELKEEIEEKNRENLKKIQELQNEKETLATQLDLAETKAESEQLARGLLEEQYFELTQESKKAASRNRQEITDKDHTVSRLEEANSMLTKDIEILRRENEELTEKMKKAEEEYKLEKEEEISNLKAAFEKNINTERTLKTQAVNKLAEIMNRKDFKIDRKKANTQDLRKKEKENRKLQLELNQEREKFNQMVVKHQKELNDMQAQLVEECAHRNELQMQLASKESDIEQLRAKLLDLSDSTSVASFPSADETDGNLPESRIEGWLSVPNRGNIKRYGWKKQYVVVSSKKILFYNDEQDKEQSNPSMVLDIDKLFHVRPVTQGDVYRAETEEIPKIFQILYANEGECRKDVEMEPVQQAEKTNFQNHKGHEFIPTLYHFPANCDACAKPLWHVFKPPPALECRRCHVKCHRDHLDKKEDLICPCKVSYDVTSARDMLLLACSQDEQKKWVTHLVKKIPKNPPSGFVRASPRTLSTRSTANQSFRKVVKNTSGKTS

[4] = target: T3, ATP-dependent 6-phosphofructokinase, platelet type (Homo sapiens, UniProt Q01813)
T3 sequence (Q01813 whole entry): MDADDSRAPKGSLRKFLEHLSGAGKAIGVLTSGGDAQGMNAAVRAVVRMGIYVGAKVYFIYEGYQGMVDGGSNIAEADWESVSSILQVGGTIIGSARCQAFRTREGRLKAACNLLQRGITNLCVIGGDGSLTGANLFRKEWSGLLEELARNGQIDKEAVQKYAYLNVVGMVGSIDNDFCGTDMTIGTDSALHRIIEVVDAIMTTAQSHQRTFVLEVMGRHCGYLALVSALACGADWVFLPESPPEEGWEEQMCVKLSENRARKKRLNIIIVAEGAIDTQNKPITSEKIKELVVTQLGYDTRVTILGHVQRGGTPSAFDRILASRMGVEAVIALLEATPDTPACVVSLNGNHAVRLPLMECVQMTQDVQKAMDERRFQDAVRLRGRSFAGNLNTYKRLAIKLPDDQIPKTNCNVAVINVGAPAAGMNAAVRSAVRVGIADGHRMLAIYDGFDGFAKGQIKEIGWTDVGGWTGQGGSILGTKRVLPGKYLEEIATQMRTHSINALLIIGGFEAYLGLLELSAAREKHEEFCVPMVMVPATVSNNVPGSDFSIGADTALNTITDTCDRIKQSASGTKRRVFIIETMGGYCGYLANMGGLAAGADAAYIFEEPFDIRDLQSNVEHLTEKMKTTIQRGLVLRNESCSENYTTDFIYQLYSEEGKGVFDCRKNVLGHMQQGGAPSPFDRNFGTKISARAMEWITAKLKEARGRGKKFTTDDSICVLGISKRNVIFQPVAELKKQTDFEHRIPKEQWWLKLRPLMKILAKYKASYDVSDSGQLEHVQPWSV
Note: in the data inactive means no Kd found up to 30 µM.

Kd [1] | Kd [2] | Kd (Insulin receptor) | Kd [3] | Kd [4] | SMILES
> 30 µM (inactive) | 2.75 µM (active) | > 30 µM (inactive) | > 30 µM (inactive) | > 30 µM (inactive) | Cc1csc(-c2nnc(Nc3ccc(Oc4ncccc4-c4ccnc(N)n4)cc3)c3ccccc23)c1 [AMG-900]
> 30 µM (inactive) | > 30 µM (inactive) | > 30 µM (inactive) | > 30 µM (inactive) | > 30 µM (inactive) | Cc1cc(C(=O)NOCCO)c(Nc2ccc(I)cc2F)n(C)c1=O [AZD-8330]
> 30 µM (inactive) | > 30 µM (inactive) | > 30 µM (inactive) | > 30 µM (inactive) | > 30 µM (inactive) | CCn1c(C(=O)N(C2CC2)C2CC2)cc2c3c(ncn3C)c(Nc3cc(C)n(C)n3)nc21 [BMS-911543]

The next lines start with the molecule.

SMILES | Kd [1] | Kd [2] | Kd (Insulin receptor) | Kd [3] | Kd [4]
Cc1nc2cc(-c3nn(C(C)C)c4ncnc(N)c34)ccc2o1 | > 30 µM (inactive) | > 30 µM (inactive) | > 30 µM (inactive) | > 30 µM (inactive) | > 30 µM (inactive)
Nc1ncnc2c1c(-c1cccc(OCc3ccccc3)c1)cn2[C@H]1C[C@@H](CN2CCC2)C1 [AEW-541] | > 30 µM (inactive) | > 30 µM (inactive) | 4.04 µM (active) | > 30 µM (inactive) | > 30 µM (inactive)
Cc1nc(NC(=O)N2CCC[C@H]2C(N)=O)sc1-c1ccnc(C(C)(C)C(F)(F)F)c1 [ALPELISIB] | > 30 µM (inactive) | > 30 µM (inactive) | > 30 µM (inactive) | > 30 µM (inactive) | > 30 µM (inactive)
O=C(Nc1c[nH]nc1-c1nc2cc(CN3CCOCC3)ccc2[nH]1)NC1CC1 [AT-9283] | > 30 µM (inactive) | 0.345 µM (active) | > 30 µM (inactive) | > 30 µM (inactive) | > 30 µM (inactive)
C=CC(=O)Nc1cc2c(Nc3ccc(F)c(Cl)c3)ncnc2cc1C#CC(C)(C)N1CCN(C)CC1 [AV-412 FREE BASE] | > 30 µM (inactive) | > 30 µM (inactive) | > 30 µM (inactive) | > 30 µM (inactive) | > 30 µM (inactive)
COc1cc([C@@H]2c3cc4c(cc3[C@H](O)[C@H]3COC(=O)[C@@H]23)OCO4)cc(OC)c1OC [AXL-1717] | > 30 µM (inactive) | > 30 µM (inactive) | > 30 µM (inactive) | > 30 µM (inactive) | > 30 µM (inactive)
Cn1cnc2c(F)c(Nc3ccc(Br)cc3F)c(C(=O)NOCCO)cc21 [BINIMETINIB] | > 30 µM (inactive) | > 30 µM (inactive) | > 30 µM (inactive) | > 30 µM (inactive) | > 30 µM (inactive)
COc1c(OCCCN2CCOCC2)ccc2c1N=C(NC(=O)c1cnc(N)nc1)N1CCN=C21 [COPANLISIB] | > 30 µM (inactive) | > 30 µM (inactive) | > 30 µM (inactive) | > 30 µM (inactive) | > 30 µM (inactive)
COCC(=O)NC/C=C/c1ccc2ncnc(Nc3ccc(Oc4ccc(C)nc4)c(C)c3)c2c1 [CP-724714] | > 30 µM (inactive) | > 30 µM (inactive) | > 30 µM (inactive) | > 30 µM (inactive) | > 30 µM (inactive)
CCS(=O)(=O)N1CCN(c2ccc(Nc3ncc(C(N)=O)c(NC4CC4)n3)cc2)CC1 [Cerdulatinib Hydrochloride] | > 30 µM (inactive) | 1.09 µM (active) | > 30 µM (inactive) | > 30 µM (inactive) | > 30 µM (inactive)
Cc1nc2cc(-n3ncc(C(=O)c4cc5ccccc5[nH]4)c3N)ccc2[nH]1 [FGFR INHIBITOR DEBIO 1347] | > 30 µM (inactive) | > 30 µM (inactive) | > 30 µM (inactive) | > 30 µM (inactive) | > 30 µM (inactive)
O=C(Nc1nc2cccc(-c3ccc(CN4CCS(=O)(=O)CC4)cc3)n2n1)C1CC1 [FILGOTINIB] | > 30 µM (inactive) | > 30 µM (inactive) | > 30 µM (inactive) | > 30 µM (inactive) | > 30 µM (inactive)
Cc1cccc(-c2nn3c(c2-c2ccnc4ccc(C(N)=O)cc24)CCC3)n1 [GALUNISERTIB] | > 30 µM (inactive) | > 30 µM (inactive) | > 30 µM (inactive) | > 30 µM (inactive) | > 30 µM (inactive)
